# Reference: the supplement of paper PMC10307832
# Experiments:
# Test in all cases: relative viability (nuclei count vs DMSO), 5 days (fraction); higher = more cells survive
# ChaGo-K-1 = system: ChaGo-K-1
# Summary of the method: (§1)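 Relative viability is defined as nuclei in treated wells over nuclei in vehicle wells. Duplicate plates were run and medians reported. Lung cancer cell lines in 1536-well plates were dosed by pin tool one day after seeding, with one drug or with a fixed anchor-drug dose plus five library-drug doses (not always all listed) in √10 steps, and nuclei were counted after 5 days.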
# NCI-H650 = system: NCI-H650
# Summary of the method: as §1
# NCI-H2126 = system: NCI-H2126
# Summary of the method: as §1
# NCI-H2347 = system: NCI-H2347
# Summary of the method: as §1
# NCI-H2087 = system: NCI-H2087
# Summary of the method: as §1
# HCC-78 = system: HCC-78
# Summary of the method: as §1
# RERF-LC-KJ = system: RERF-LC-KJ
# Summary of the method: as §1
# NCI-H1915 = system: NCI-H1915
# Summary of the method: as §1
# 201T = system: 201T
# Summary of the method: as §1
# NCI-H23 = system: NCI-H23
# Summary of the method: as §1
# PC-14 = system: PC-14
# Summary of the method: as §1
# LCLC-97TM1 = system: LCLC-97TM1
# Summary of the method: as §1
# NCI-H1666 = system: NCI-H1666
# Summary of the method: as §1
# H3255 = system: H3255
# Summary of the method: as §1
# EPLC-272H = system: EPLC-272H
# Summary of the method: as §1
# NCI-H647 = system: NCI-H647
# Summary of the method: as §1
# NCI-H2405 = system: NCI-H2405
# Summary of the method: as §1
# LC-2-ad = system: LC-2-ad
# Summary of the method: as §1
# HCC-827 = system: HCC-827
# Summary of the method: as §1
smiles,measurement,setting,value
Nc1ccn([C@@H]2O[C@H](CO)[C@@H](O)[C@@H]2O)c(=O)n1 [Cytarabine] + NC(=O)Nc1cc(-c2cccc(F)c2)sc1C(=O)N[C@H]1CCCNC1 [AZD7762] (partner 0.2 µM),relative viability,ChaGo-K-1; first compound 0.005 µM,0.877
same,relative viability,ChaGo-K-1; first compound 0.01581 µM,0.643
same,relative viability,ChaGo-K-1; first compound 0.05 µM,0.439
same,relative viability,ChaGo-K-1; first compound 0.1581 µM,0.249
same,relative viability,ChaGo-K-1; first compound 0.5 µM,0.199
same,relative viability,NCI-H650; first compound 0.005 µM,0.843
same,relative viability,NCI-H650; first compound 0.01581 µM,0.26
same,relative viability,NCI-H650; first compound 0.05 µM,0.19
same,relative viability,NCI-H650; first compound 0.1581 µM,0.146
same,relative viability,NCI-H650; first compound 0.5 µM,0.162
same,relative viability,NCI-H2126; first compound 0.005 µM,0.965
same,relative viability,NCI-H2126; first compound 0.01581 µM,0.936
same,relative viability,NCI-H2126; first compound 0.05 µM,0.808
same,relative viability,NCI-H2126; first compound 0.1581 µM,0.361
same,relative viability,NCI-H2126; first compound 0.5 µM,0.267
same,relative viability,NCI-H2347; first compound 0.005 µM,0.721
same,relative viability,NCI-H2347; first compound 0.01581 µM,0.525
same,relative viability,NCI-H2347; first compound 0.05 µM,0.47
same,relative viability,NCI-H2347; first compound 0.1581 µM,0.369
same,relative viability,NCI-H2347; first compound 0.5 µM,0.286
same,relative viability,NCI-H2087; first compound 0.005 µM,1.28
same,relative viability,NCI-H2087; first compound 0.01581 µM,1.56
same,relative viability,NCI-H2087; first compound 0.05 µM,1.11
same,relative viability,NCI-H2087; first compound 0.1581 µM,0.709
same,relative viability,NCI-H2087; first compound 0.5 µM,0.231
same,relative viability,HCC-78; first compound 0.005 µM,0.614
same,relative viability,HCC-78; first compound 0.01581 µM,0.779
same,relative viability,HCC-78; first compound 0.05 µM,0.486
same,relative viability,HCC-78; first compound 0.1581 µM,0.374
same,relative viability,HCC-78; first compound 0.5 µM,0.314
same,relative viability,RERF-LC-KJ; first compound 0.005 µM,0.957
same,relative viability,RERF-LC-KJ; first compound 0.01581 µM,0.941
same,relative viability,RERF-LC-KJ; first compound 0.05 µM,0.51
same,relative viability,RERF-LC-KJ; first compound 0.1581 µM,0.381
same,relative viability,RERF-LC-KJ; first compound 0.5 µM,0.322
same,relative viability,NCI-H1915; first compound 0.005 µM,0.579
same,relative viability,NCI-H1915; first compound 0.01581 µM,0.386
same,relative viability,NCI-H1915; first compound 0.05 µM,0.241
same,relative viability,NCI-H1915; first compound 0.1581 µM,0.155
same,relative viability,NCI-H1915; first compound 0.5 µM,0.131
same,relative viability,201T; first compound 0.005 µM,0.635
same,relative viability,201T; first compound 0.01581 µM,0.596
same,relative viability,201T; first compound 0.05 µM,0.653
same,relative viability,201T; first compound 0.1581 µM,0.342
same,relative viability,201T; first compound 0.5 µM,0.265
same,relative viability,NCI-H23; first compound 0.005 µM,0.227
same,relative viability,NCI-H23; first compound 0.01581 µM,0.171
same,relative viability,NCI-H23; first compound 0.05 µM,0.202
same,relative viability,NCI-H23; first compound 0.1581 µM,0.126
same,relative viability,NCI-H23; first compound 0.5 µM,0.134
same,relative viability,PC-14; first compound 0.005 µM,0.346
same,relative viability,PC-14; first compound 0.01581 µM,0.234
same,relative viability,PC-14; first compound 0.05 µM,0.136
same,relative viability,PC-14; first compound 0.1581 µM,0.0783
same,relative viability,PC-14; first compound 0.5 µM,0.0484
same,relative viability,LCLC-97TM1; first compound 0.005 µM,0.14
same,relative viability,LCLC-97TM1; first compound 0.01581 µM,0.0846
same,relative viability,LCLC-97TM1; first compound 0.05 µM,0.0944
same,relative viability,LCLC-97TM1; first compound 0.1581 µM,0.0643
same,relative viability,LCLC-97TM1; first compound 0.5 µM,0.0575
same,relative viability,NCI-H1666; first compound 0.005 µM,0.943
same,relative viability,NCI-H1666; first compound 0.01581 µM,0.768
same,relative viability,NCI-H1666; first compound 0.05 µM,0.666
same,relative viability,NCI-H1666; first compound 0.1581 µM,0.444
same,relative viability,NCI-H1666; first compound 0.5 µM,0.413
same,relative viability,H3255; first compound 0.005 µM,0.945
same,relative viability,H3255; first compound 0.01581 µM,0.812
same,relative viability,H3255; first compound 0.05 µM,0.764
same,relative viability,H3255; first compound 0.1581 µM,0.583
same,relative viability,H3255; first compound 0.5 µM,0.551
same,relative viability,EPLC-272H; first compound 0.005 µM,0.335
same,relative viability,EPLC-272H; first compound 0.01581 µM,0.273
same,relative viability,EPLC-272H; first compound 0.05 µM,0.117
same,relative viability,EPLC-272H; first compound 0.1581 µM,0.0659
same,relative viability,EPLC-272H; first compound 0.5 µM,0.0636
same,relative viability,NCI-H647; first compound 0.005 µM,0.188
same,relative viability,NCI-H647; first compound 0.01581 µM,0.0767
same,relative viability,NCI-H647; first compound 0.05 µM,0.0765
same,relative viability,NCI-H647; first compound 0.1581 µM,0.0321
same,relative viability,NCI-H647; first compound 0.5 µM,0.0304
same,relative viability,NCI-H2405; first compound 0.005 µM,0.612
same,relative viability,NCI-H2405; first compound 0.01581 µM,0.454
same,relative viability,NCI-H2405; first compound 0.05 µM,0.445
same,relative viability,NCI-H2405; first compound 0.1581 µM,0.249
same,relative viability,NCI-H2405; first compound 0.5 µM,0.217
same,relative viability,LC-2-ad; first compound 0.005 µM,0.811
same,relative viability,LC-2-ad; first compound 0.01581 µM,0.681
same,relative viability,LC-2-ad; first compound 0.05 µM,0.674
same,relative viability,LC-2-ad; first compound 0.1581 µM,0.245
same,relative viability,LC-2-ad; first compound 0.5 µM,0.208
same,relative viability,HCC-827; first compound 0.005 µM,0.17
same,relative viability,HCC-827; first compound 0.01581 µM,0.168
same,relative viability,HCC-827; first compound 0.05 µM,0.13
same,relative viability,HCC-827; first compound 0.1581 µM,0.14
same,relative viability,HCC-827; first compound 0.5 µM,0.148
